The values below are quoted from earlier work in article PMC5108082, “Pharmacokinetics, toxicity, and cytochrome P450 modulatory activity of plumbagin” (BMC Pharmacology & Toxicology, 2016).

pIC50: −log10 of the molar value.

The test system of data set [1] is K1 chloroquine-resistant P. falciparum. To be noted: K1 clone; read-out: mean IC50; cited from earlier work.
The subject of data set [2] is 3D7 chloroquine-sensitive P. falciparum. To be noted: 3D7 clone; read-out: mean IC50; cited from earlier work.

`OC(c1cc(C(F)(F)F)nc2c(C(F)(F)F)cccc12)C1CCCCN1` (centres unmarked) [mefloquine]: the pIC50 (usually the IC50 on a negative log10 scale, so that one unit is a factor of ten) in data set [1] was 7.92; in data set [2] it was 8.00.
For the molecule `C[C@H]1[C@H](OC(=O)CCC(=O)O)O[C@@H]2O[C@@]3(C)CC[C@H]4[C@H](C)CC[C@@H]1[C@@]24OO3` [artesunate], the pIC50 in data set [1] was 8.82; in data set [2], 8.70.
For the molecule `C=C[C@H]1C[N@@]2CC[C@H]1C[C@H]2[C@H](O)c1ccnc2ccc(OC)cc12` [quinine], the pIC50 is 6.88 in data set [1] and 7.28 in data set [2].
As to `CCN(CC)CCCC(C)Nc1ccnc2cc(Cl)ccc12` (centres unmarked) [chloroquine], the pIC50 in data set [1] is 6.89; in data set [2], 8.10.
